Results: patent US3984432A, “Color photographic recording material” (priority 1973, dated 1976)

Key:
[1] = Solubility of coupling agents in tricresyl phosphate (oil) at 20° C (Table A); assay type: physicochemical
[2] = Absorption maximum after colour development in a photographic silver halide layer according to Use Example I; assay type: physicochemical; conditions: for Abs.max., first of two maxima (subsidiary maximum) / Abs.max., second of two maxima (absorption maximum): pyrazolone coupling agents
How it was run: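 Coupling agent dispersed in tricresyl phosphate with gelatine at pH 6.5, mixed with silver bromide emulsion and hardener, cast on glass plates and dried at 32° C. Strips exposed to 500 Lux/cm^2 under a step wedge for 2 seconds, then processed at 24° C; absorption maximum read after colour development.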

SMILES	Solubility in g per g of tricresyl phosphate [1]	Abs.max. (single maximum) [2] [nm]	Abs.max., first of two maxima (subsidiary maximum) [2] [nm]	Abs.max., second of two maxima (absorption maximum) [2] [nm]
CCCCCCCCCCCCOc1cccc(OC(CC)C(=O)Nc2cc(Cl)c(C)c(Cl)c2O)c1 (stereo not shown)	0.7 g per g of tricresyl phosphate			
CCCCCCCCCCCCOc1cccc(OC(CC)C(=O)Nc2cccc(C(=O)NC3=NN(c4c(Cl)cc(Cl)cc4Cl)C(=O)C3)c2)c1 (stereo not shown)	0.4 g per g of tricresyl phosphate			
CCC(C)(C)c1ccc(OCC(=O)Nc2cccc(C(=O)NC3=NN(c4c(Cl)cc(Cl)cc4Cl)C(=O)C3)c2)c(C(C)(C)CC)c1	0.6 g per g of tricresyl phosphate			
CCCCCCCCCCCCCCCc1cccc(OC(CC)C(=O)Nc2cc(Cl)c(C)c(Cl)c2O)c1 (stereo not shown)	0.7 g per g of tricresyl phosphate			
CCCCCCCCCCCCCCCc1cccc(OC(CC)C(=O)Nc2cccc(C(=O)NC3=NN(c4c(Cl)cc(Cl)cc4Cl)C(=O)C3)c2)c1 (stereo not shown)	0.3 g per g of tricresyl phosphate			
CCCCOP(=O)(CC(=O)Nc1cccc(NC(=O)CC(=O)c2ccccc2)c1)OCCCC [(109)]	> 5 g per g of tricresyl phosphate	442		
COc1ccc(C(=O)NCCCP(=O)(OC(C)C)OC(C)C)cc1NC(=O)CC(=O)c1ccccc1Cl [(128)]	> 5 g per g of tricresyl phosphate	447		
CCCCC(CC)COP(=O)(CCCNC(=O)c1ccc(Cl)c(NC(=O)CC(=O)C(C)(C)C)c1)OCC(CC)CCCC (stereo not shown) [(135)]	> 5 g per g of tricresyl phosphate	445		
CCCCOP(=O)(CCCOc1cccc(NC2=NN(c3c(Cl)cc(Cl)cc3Cl)C(=O)C2)c1)OCCCC [(409)]			426	530
CCOP(=O)(CCCc1ccc(NC2=NN(c3cccc(Cl)c3)C(=O)C2)cc1)OCC [(410)]			438	532
CCCCOP(=O)(CCCOc1cccc(NC2=NN(c3cccc(Cl)c3)C(=O)C2)c1)OCCCC [(411)]			428	532
CCCCOP(=O)(CCCOc1cccc(NC2=NN(c3ccccc3)C(=O)C2)c1)OCCCC [(412)]			430	528
CCCCC(CC)COP(=O)(CCCOc1cccc(NC2=NN(c3cccc(Cl)c3)C(=O)C2)c1)OCC(CC)CCCC (stereo not shown) [(413)]			428	533
CCOP(=O)(CCCOc1cccc(C(=O)Nc2cccc(NC3=NN(c4ccccc4)C(=O)C3)c2)c1)OCC [(414)]			430	530
CCOP(=O)(CCCOc1cccc(C(=O)Nc2cccc(NC3=NN(c4c(Cl)cc(Cl)cc4Cl)C(=O)C3)c2)c1)OCC [(415)]			426	532
CCOP(=O)(CCCOc1cccc(C(=O)Nc2ccc(NC3=NN(c4ccccc4)C(=O)C3)cc2)c1)OCC [(416)]			426	528
CCCCOP(=O)(CCCOc1cccc(C(=O)Nc2ccc(NC3=NN(c4ccccc4)C(=O)C3)cc2)c1)OCCCC [(417)]			428	530
CCCCOP(=O)(CCCOc1cccc(C(=O)Nc2cccc(NC3=NN(c4ccccc4)C(=O)C3)c2)c1)OCCCC [(418)]			430	530

SMILES	Solubility in g per g of tricresyl phosphate [1]	Abs.max. (single maximum) [2] [nm]	Abs.max., first of two maxima (subsidiary maximum) [2] [nm]	Abs.max., second of two maxima (absorption maximum) [2] [nm]
CCCCOP(=O)(CCCOc1cccc(C(=O)Nc2cccc(NC3=NN(c4c(Cl)cc(Cl)cc4Cl)C(=O)C3)c2)c1)OCCCC [(419)]			427	532
CCCCC(CC)COP(=O)(CCCOc1cccc(C(=O)Nc2ccc(NC3=NN(c4ccccc4)C(=O)C3)cc2)c1)OCC(CC)CCCC (stereo not shown) [(420)]			428	529
CCCCC(CC)COP(=O)(CCCOc1cccc(C(=O)Nc2cccc(NC3=NN(c4ccccc4)C(=O)C3)c2)c1)OCC(CC)CCCC (stereo not shown) [(421)]			430	528
CCCCC(CC)COP(=O)(CCCOc1cccc(C(=O)Nc2cccc(NC3=NN(c4c(Cl)cc(Cl)cc4Cl)C(=O)C3)c2)c1)OCC(CC)CCCC (stereo not shown) [(422)]			426	530
CCCCOP(=O)(CCCOc1cc(OCCCP(=O)(OCCCC)OCCCC)cc(C(=O)Nc2cccc(NC3=NN(c4ccccc4)C(=O)C3)c2)c1)OCCCC [(423)]			430	530
CCCCOP(=O)(CCCOc1cc(OCCCP(=O)(OCCCC)OCCCC)cc(C(=O)Nc2cccc(NC3=NN(c4c(Cl)cc(Cl)cc4Cl)C(=O)C3)c2)c1)OCCCC [(424)]			427	532
CCOP(=O)(CCCOc1cccc(C(=O)Nc2c(C)cc(C)c(N3N=C(Nc4ccc(Cl)cc4)CC3=O)c2C)c1)OCC [(425)]			430	530
CCCCOP(=O)(CCCOc1cccc(C(=O)Nc2c(C)cc(C)c(N3N=C(Nc4ccc(Cl)cc4)CC3=O)c2C)c1)OCCCC [(426)]			430	528
CCCCOP(=O)(CCCOc1cccc(C(=O)Nc2cccc(NC3=NN(c4ccc(S(=O)(=O)N(CC)CC)cc4)C(=O)C3)c2)c1)OCCCC [(427)]			431	538
CCCCOP(=O)(CCCOc1cc(OCCCP(=O)(OCCCC)OCCCC)cc(C(=O)Nc2ccc(Cl)c(NC3=NN(c4c(Cl)cc(Cl)cc4Cl)C(=O)C3)c2)c1)OCCCC [(428)]			430	537
CCCCOP(=O)(CCCOc1cccc(C(=O)Nc2cccc(NC3=NN(c4ccc(S(C)(=O)=O)cc4)C(=O)C3)c2)c1)OCCCC [(429)]			430	538
CCCCOP(=O)(CCCOc1cc(OCCCP(=O)(OCCCC)OCCCC)cc(C(=O)Nc2cccc(NC3=NN(c4ccc(S(C)(=O)=O)cc4)C(=O)C3)c2)c1)OCCCC [(430)]			430	540
CCOP(=O)(CCCOc1cccc(NC(=O)c2ccc3ccccc3c2O)c1)OCC [(601)]		704		
CCCCOP(=O)(CCCOc1cccc(NC(=O)c2ccc3ccccc3c2O)c1)OCCCC [(602)]		706		
CCCCOP(=O)(CCCOc1cc(OCCCP(=O)(OCCCC)OCCCC)cc(C(=O)Nc2cc(Cl)c(C)c(Cl)c2O)c1)OCCCC [(701)]		662		
CCCCCCCCCCCCCCCCCCNS(=O)(=O)c1ccc(N(CCCC)CCCC)c(NC(=O)CC(=O)c2ccccc2)c1 [DT-OS 1,522,414]	1.2 g per g of tricresyl phosphate			
CCCCCCCCCCOc1cccc(OCCC(=O)Nc2cccc(NC(=O)CC(=O)c3ccccc3C)c2)c1 [DT-OS 2,039,970]	1 g per g of tricresyl phosphate			
CCC(Oc1ccc(C(C)(C)CC)cc1C(C)(C)CC)C(=O)Nc1cc(Cl)c(C)c(Cl)c1O (stereo not shown) [US-PS 2,801,171 Coupling agent No. (4)]	0.4 g per g of tricresyl phosphate			
